# From ChEMBL document CHEMBL1201862, “PubChem BioAssay data set” (2004)
#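 Values below derive from 48-hour exposures of cells grown in 96-well plates, with endpoints linearly interpolated between the two concentrations bracketing the appropriate inhibition level. Abbreviation: GI50, concentration required for 50% inhibition of growth.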 Active and inactive are the calls of the source. Cut-off read from the data, not from the text of the source: active = GI50 up to about 1.1 µM and inactive = higher.
# How the values were obtained:
# Test in all cases: NCI anticancer screen, dose series, 48 h
# [1] = system: K562
# [2] = system: MDA-MB-231
# [3] = system: MOLT-4
# [4] = system: UO-31
# [5] = system: NCI/ADR-RES
# [6] = system: NCI-H522
# [7] = system: SF-268
# [8] = system: HOP-62
# [9] = system: CCRF-CEM
# [10] = system: OVCAR-3
# [11] = system: A549
# [12] = system: NCI-H226
# [13] = system: TK-10
# [14] = system: SK-MEL-5
# [15] = system: SN12C
# [16] = system: A498
# [17] = system: OVCAR-4
# [18] = system: HCT-15
# [19] = system: SW-620
# [20] = system: HCT-116
# [21] = system: ACHN
# [22] = system: HL-60
# [23] = system: 786-0
# [24] = system: RXF 393
# [25] = system: U-251
# [26] = system: M14
# [27] = system: OVCAR-5
# [28] = system: UACC-257
# [29] = system: LOX IMVI
# [30] = system: CAKI-1
# [31] = system: MDA-MB-435
# [32] = system: MDA-N
# [33] = system: SF-539
# [34] = system: IGROV-1
# [35] = system: SK-MEL-28
# [36] = system: COLO 205
# [37] = system: NCI-H23
# [38] = system: PC-3
# [39] = system: HT-29
# [40] = system: HOP-92
# [41] = system: RPMI-8226
# [42] = system: SNB-75
# [43] = system: OVCAR-8
# [44] = system: SNB-19
# [45] = system: Hs-578T
# [46] = system: Malme-3M
# [47] = system: KM12
# [48] = system: MCF7
# [49] = system: DU-145
# [50] = system: NCI-H460
# [51] = system: SF-295
# [52] = system: EKVX
# [53] = system: SK-MEL-2
# [54] = system: SK-OV-3
# [55] = system: T47D
# [56] = system: SR
# [57] = system: HCC 2998
# [58] = system: UACC-62
compound,measurement,setting,value
CCOC(=O)Cc1csc(NC(NC(=O)OCC)(C(=O)OCC)C(F)(F)F)n1 (configuration not stated),GI50,[1],> 100 µM (inactive)
same,GI50,[2],> 100 µM (inactive)
same,GI50,[3],> 100 µM (inactive)
same,GI50,[4],> 100 µM (inactive)
same,GI50,[5],> 100 µM (inactive)
same,GI50,[6],16.9 µM (inactive)
same,GI50,[7],> 100 µM (inactive)
same,GI50,[8],> 100 µM (inactive)
same,GI50,[9],> 100 µM (inactive)
same,GI50,[10],> 100 µM (inactive)
same,GI50,[11],> 100 µM (inactive)
same,GI50,[12],> 100 µM (inactive)
same,GI50,[13],> 100 µM (inactive)
same,GI50,[14],> 100 µM (inactive)
same,GI50,[15],> 100 µM (inactive)
same,GI50,[16],> 100 µM (inactive)
same,GI50,[17],> 100 µM (inactive)
same,GI50,[18],> 100 µM
same,GI50,[19],> 100 µM (inactive)
same,GI50,[20],> 100 µM (inactive)
same,GI50,[21],> 100 µM (inactive)
same,GI50,[22],> 100 µM (inactive)
same,GI50,[23],> 100 µM (inactive)
same,GI50,[24],> 100 µM (inactive)
same,GI50,[25],> 100 µM (inactive)
same,GI50,[26],> 100 µM (inactive)
same,GI50,[27],> 100 µM (inactive)
same,GI50,[28],> 100 µM (inactive)
same,GI50,[29],> 100 µM (inactive)
same,GI50,[30],> 100 µM (inactive)
same,GI50,[31],> 100 µM (inactive)
same,GI50,[32],> 100 µM (inactive)
same,GI50,[33],> 100 µM (inactive)
same,GI50,[34],> 100 µM (inactive)
same,GI50,[35],> 100 µM (inactive)
same,GI50,[36],> 100 µM (inactive)
same,GI50,[37],> 100 µM (inactive)
same,GI50,[38],> 100 µM (inactive)
same,GI50,[39],> 100 µM (inactive)
same,GI50,[40],56.6 µM (inactive)
same,GI50,[41],> 100 µM (inactive)
same,GI50,[42],> 100 µM (inactive)
same,GI50,[43],> 100 µM (inactive)
same,GI50,[44],> 100 µM (inactive)
same,GI50,[45],> 100 µM (inactive)
same,GI50,[46],> 100 µM (inactive)
same,GI50,[47],> 100 µM (inactive)
same,GI50,[48],> 100 µM (inactive)
same,GI50,[49],> 100 µM (inactive)
same,GI50,[50],> 100 µM (inactive)
same,GI50,[51],> 100 µM (inactive)
same,GI50,[52],> 100 µM (inactive)
same,GI50,[53],> 100 µM (inactive)
same,GI50,[54],> 100 µM (inactive)
same,GI50,[55],> 100 µM (inactive)
same,GI50,[56],> 100 µM (inactive)
same,GI50,[57],> 100 µM (inactive)
O=c1cc(-c2ccccc2)nc2[nH]ccn12,GI50,[1],> 10 µM (inactive)
same,GI50,[2],> 10 µM (inactive)
same,GI50,[3],> 10 µM (inactive)
same,GI50,[4],7.87 µM (inactive)
same,GI50,[5],> 10 µM (inactive)
same,GI50,[6],> 10 µM (inactive)
same,GI50,[7],> 10 µM (inactive)
same,GI50,[8],> 10 µM (inactive)
same,GI50,[9],> 10 µM (inactive)
same,GI50,[10],> 10 µM (inactive)
same,GI50,[11],> 10 µM (inactive)
same,GI50,[12],> 10 µM (inactive)
same,GI50,[13],> 10 µM (inactive)
same,GI50,[14],> 10 µM (inactive)
same,GI50,[15],> 10 µM (inactive)
same,GI50,[16],> 10 µM (inactive)
same,GI50,[17],> 10 µM (inactive)
same,GI50,[18],> 10 µM
same,GI50,[19],> 10 µM (inactive)
same,GI50,[20],> 10 µM (inactive)
same,GI50,[21],> 10 µM (inactive)
same,GI50,[22],> 10 µM (inactive)
same,GI50,[24],> 10 µM (inactive)
same,GI50,[25],> 10 µM (inactive)
same,GI50,[26],> 10 µM (inactive)
same,GI50,[27],> 10 µM (inactive)
same,GI50,[29],> 10 µM (inactive)
same,GI50,[30],> 10 µM (inactive)
same,GI50,[31],> 10 µM (inactive)
same,GI50,[32],> 10 µM (inactive)
same,GI50,[33],> 10 µM (inactive)
same,GI50,[34],> 10 µM (inactive)
same,GI50,[35],> 10 µM (inactive)
same,GI50,[36],> 10 µM (inactive)
same,GI50,[37],> 10 µM (inactive)
same,GI50,[38],> 10 µM (inactive)
same,GI50,[39],> 10 µM (inactive)
same,GI50,[41],> 10 µM (inactive)
same,GI50,[42],6.25 µM (inactive)
same,GI50,[43],> 10 µM (inactive)
same,GI50,[44],> 10 µM (inactive)
same,GI50,[45],> 10 µM (inactive)
same,GI50,[58],> 10 µM (inactive)
same,GI50,[46],> 10 µM (inactive)
same,GI50,[47],> 10 µM (inactive)
same,GI50,[48],> 10 µM (inactive)
same,GI50,[49],> 10 µM (inactive)
same,GI50,[50],> 10 µM (inactive)
same,GI50,[51],> 10 µM (inactive)
same,GI50,[52],> 10 µM (inactive)
same,GI50,[53],> 10 µM (inactive)
same,GI50,[54],> 10 µM (inactive)
same,GI50,[55],> 10 µM (inactive)
same,GI50,[56],> 10 µM (inactive)
same,GI50,[57],> 10 µM (inactive)
